Measurements from article PMC12735844, “2-(Trihydroxyphenyl)thienopyrimidinones as Key Scaffolds for Targeting a Novel Allosteric Site of HIV-1 Integrase” (Molecules, 2025).
Several values for one entry are separate records, joined by “and”; a condition that tells them apart may be missing. Equal values may be shown once. Read-outs that look alike come from different tables or passages of the source.

Legend:
[1] = target: T1, HIV-1 IN (wild-type) in the presence of LEDGF/p75 (Human immunodeficiency virus type 1 group M subtype B, UniProt P12497); set-up: method as in PMID 37764476, PMID 23631411; conditions: previously reported dihydroxyphenyl-thienopyrimidinones; read-out: IN LEDGF/p75-dependent IC50; cited from earlier work
T1 construct: IN is a 32 kDa multimeric enzyme comprising three domains; His; made in house; host or cells: Escherichia coli BL21 (DE3)

[2] = target: T1, HIV-1 IN (wild-type) in the presence of LEDGF/p75; experiment: HTRF HIV-1 IN LEDGF/p75-dependent assay (3'-processing and strand transfer), wild-type IN, with or without sucrose; assay type: biochemical; conditions: for IC50: IC50 IN LEDGF/p75-dependent integration
Procedure: (§1) The IN LEDGF/p75-dependent and indepentent assay was performed for the evaluation of 3′-processing and strand-transfer IN reactions inhibition in the presence/absence of recombinant LEDGF/p75 protein, as previously described.
(§2) The same assay in the presence of HIV-1 IN wt, K173A and H185A mutant proteins, was used to evaluate the effect of sucrose in the presence of selected compounds.

[3] = target: T2, HIV-1 IN in the absence of LEDGF/p75 (Human immunodeficiency virus type 1 group M subtype B, UniProt P12497); experiment: HTRF HIV-1 IN LEDGF/p75-independent assay; assay type: biochemical; conditions: mean ± SE, three experiments, read-out: IC50 IN LEDGF/p75-independent integration
T2 construct: His; made in house; host or cells: Escherichia coli BL21 (DE3)
Procedure: as §1

[4] = target: T3, HIV-1 IN/LEDGF/p75 binding (Human immunodeficiency virus type 1 group M subtype B, UniProt P12497); experiment: HTRF-based IN-LEDGF/p75 binding assay; conditions: mean ± SE, three experiments
T3 construct: IN is a 32 kDa multimeric enzyme comprising three domains; made in house; host or cells: Escherichia coli BL21 (DE3)
Procedure: The IN-LEDGF/p75 binding was evaluated using a FRET method, in which His-IN was pre-incubated with test compounds in a mix buffer previously described, for 30 min at room temperature. After the addition of FLAG-LEDGF/p75 and a mixture of anti-His6-XL665 and anti-FLAG-EuCryptate antibodies, the reaction was read after 4 h at 4 °C, using 314 nm for excitation wavelength and […] and 620 nm for the wavelength of the acceptor and donor emission, respectively, with a Perkin Elmer Victor 3 plate reader (Perkin Elmer, Waltham, MA, USA), and the HTRF signal calculated by the emission ratio 665 nm/620 nm multiplied by 10.000.

HIV-1 IN multimerization = target: T4, HIV-1 IN multimerization (Human immunodeficiency virus type 1 group M subtype B, UniProt P12497); experiment: HTRF-based assay of higher-order, aberrant IN multimerization; assay type: biochemical; conditions: dash = no induction of higher-order
T4 construct: IN is a 32 kDa multimeric enzyme comprising three domains; made in house; host or cells: Escherichia coli BL21 (DE3)
Procedure: (§3) HIV-1 His and FLAG-tagged INs were mixed in a mix buffer previously described and compounds added to the mixture and incubated for 2.5 h at room temperature. At the end of the time, a mixture of anti-His6-XL665 and anti-FLAG-EuCryptate antibodies were added to the reaction and, after an incubation time of 3 h, the HTRF signal was recorded as described in the previous paragraph.

[5] = target: T5, HIV-1 IN-IN subunit exchange (Human immunodeficiency virus type 1 group M subtype B, UniProt P12497); experiment: HTRF-based IN-IN subunit exchange assay; assay type: biochemical; conditions: for IC50: mean ± SE, three experiments
T5 construct: IN is a 32 kDa multimeric enzyme comprising three domains; made in house; host or cells: Escherichia coli BL21 (DE3)
Procedure: as §3

HIV-1 IN K173A mutant = target: T6, HIV-1 IN K173A mutant (Human immunodeficiency virus type 1 group M subtype B, UniProt P12497, K1320A); experiment: HTRF IN LEDGF/p75-dependent assay on K173A mutant, with or without sucrose; assay type: biochemical; conditions: for Fold of increase of potency, K173A mutant: with sucrose vs alone
T6 construct: IN is a 32 kDa multimeric enzyme comprising three domains; His; made in house; host or cells: Escherichia coli BL21 (DE3)
Procedure: (§4) The commercial QuikChange mutagenesis Kit (Agilent Technologies Inc., Santa Clara, CA, USA) were used to introduce the selected substitutions on HIV-1 IN wt plasmid and the correct presence of alanine in 173 and 185 position were evaluated in the electropherogram provided by Bio-Fab, after the sequencing.
(§5) HIV-1 IN wt, K173A and H185A mutant proteins were expressed in Escherichia coli strain BL21 (DE3) after transformation with a plasmid containing protein gene. Recombinant proteins were then purified using a Ni-Sepharose column and a heparin column and stored as previously described. LEDGF/p75 with 6-his and FLAG tags were purified with a heparin column and a Superdex 200 GL (Merck Sigma Aldrich, Milan, Italy) column previously described.
as §1, §2

HIV-1 IN H185A mutant = target: T7, HIV-1 IN H185A mutant (Human immunodeficiency virus type 1 group M subtype B, UniProt P12497, F1332A); experiment: HTRF IN LEDGF/p75-dependent assay on H185A mutant, with or without sucrose; assay type: biochemical; conditions: for IC50: LEDGF/p75-dependent activity; for Fold of increase of potency, H185A mutant: with sucrose vs alone
T7 construct: IN is a 32 kDa multimeric enzyme comprising three domains; His; made in house; host or cells: Escherichia coli BL21 (DE3)
Procedure: as §4, §5, §1, §2

[6] = tested on: HIV-1RF isolate in CEM-SS cells; experiment: Antiviral activity, XTT-based cell viability assay
Procedure: (§6) Antiviral activity of selected thienopyrimidinones was determined via the 2,3-bis[2-methoxy-4-nitro-5-sulfophenyl]-5-[(phenylamino)-carbonyl]-2H tetrazolium hydroxide (XTT)-based cell viability assay, using the HIV-1RF isolate and human T-cell line CEM-SS.

human T-cell line CEM-SS = experiment: Cytotoxicity in the XTT-based cell viability assay; conditions: CEM-SS cells
Procedure: as §6

wt RT RNase H = target: wt RT RNase H; set-up: method as in PMID 33143469; conditions: previously reported quinazolinone; cited from earlier work
[7] = LEDGF/p75-dependent, IC50 alone vs with sucrose
[8] = HIV-1 IN H185A mutant IC50 alone, no sucrose
[9] = HIV-1 IN H185A mutant IC50 with sucrose, in the presence of sucrose
[10] = in the presence of LEDGF/p75, compound alone, mean ± SE, three experiments

O=c1[nH]c(-c2cc(O)cc(O)c2)nc2sc3c(c12)CCCCC3 [Compound 3]
IC50 [1]: 3.37 ± 0.48 µM

Cc1sc2nc(-c3cc(O)c(O)cc3O)[nH]c(=O)c2c1C [Compound 6, 5,6-Dimethyl-2-(2,4,5-trihydroxyphenyl)thieno[2,3-d]pyrimidin-4(3H)-one]
reduction in activity by sucrose (times) [2, 7]: approximately 10
IC50 [3]: 0.76 ± 0.01 µM
IC50 [4]: 75 ± 12 µM
MI50 IN multimerization (HIV-1 IN multimerization): none succeeded in inducing multimerization
IC50 [5]: 5.45 ± 0.05 µM
IC50 (HIV-1 IN K173A mutant): 6.5 ± 1.7 µM
Fold of increase of potency, K173A mutant (HIV-1 IN K173A mutant): 32.5
IC50 (HIV-1 IN H185A mutant; [8]): 4.64 ± 0.7 µM
IC50 (HIV-1 IN H185A mutant; [9]): 0.48 ± 0.08 µM
Fold of increase of potency, H185A mutant (HIV-1 IN H185A mutant): 9.7
effect on viral replication [6]: not able to inhibit viral replication
cytotoxicity (human T-cell line CEM-SS): devoid of cytotoxicity

O=c1[nH]c(-c2cc(O)c(O)cc2O)nc2sc3c(c12)CCC3 [Compound 12, 2-(2,4,5-Ttrihydroxyphenyl)-3,5,6,7-tetrahydro-4H-cyclopenta[4,5]thieno[2,3-d]pyrimidin-4-one]
IC50 [3]: 0.86 ± 0.14 µM
IC50 [4]: 24.7 ± 1.75 µM
MI50 IN multimerization (HIV-1 IN multimerization): none succeeded in inducing multimerization
IC50 [5]: 17.3 ± 1.7 µM

O=c1[nH]c(-c2ccc(O)c(O)c2)nc2ccc(I)cc12 [Compound 1]
IC50 (wt RT RNase H): 0.11 ± 0.01 µM

Cc1sc2nc(-c3c(O)cc(O)cc3O)[nH]c(=O)c2c1C [Compound 7, 5,6-Dimethyl-2-(2,4,6-trihydroxyphenyl)thieno[2,3-d]pyrimidin-4(3H)-one]
IC50 [2, 10]: 6.1 ± 1.6 µM

CCCC(C(=O)O)c1c(C)nc2ccc(Cl)cc2c1-c1ccccc1 (centres unmarked) [LEDGIN-6, reference compound]
IC50 [2, 10]: 9 ± 2 µM
IC50 [3]: 10 ± 2 µM
IC50 [4]: 10 ± 0.4 µM
EC50 (HIV-1 IN multimerization; read-out: MI50 IN multimerization): 10 ± 1 µM
IC50 [5]: > 100 µM
percentage in parentheses after >100, IN-IN subunit exchange ([5]; meaning of the bracketed percentage is not defined in the paper): >100 (100%)

OC[C@H]1O[C@@](CO)(O[C@H]2O[C@H](CO)[C@@H](O)[C@H](O)[C@H]2O)[C@@H](O)[C@@H]1O [sucrose, reference compound]
IC50 IN LEDGF/p75-dependent integration [2, 10]: inactive

O=c1[nH]c(-c2cc(O)c(O)c(O)c2)nc2sc3c(c12)CCC3 [C00009]
IC50 [2, 10]: 0.87 ± 0.045 µM

O=c1[nH]c(-c2c(O)cc(O)cc2O)nc2sc3c(c12)CCCCC3 [C00007]
IC50 [2, 10]: 5.2 ± 1.2 µM

O=c1[nH]c(-c2cc(O)c(O)c(O)c2)nc2sc3c(c12)CCCCC3 [Compound 10, 2-(3,4,5-Trihydroxyphenyl)-3,5,6,7,8,9-hexahydro-4H-cyclohepta[4,5]thieno[2,3-d]pyrimidin-4-one]
IC50 [2, 10]: 0.31 µM and 0.315 µM
increase of inhibitory capacity by sucrose (times) [2, 7]: ~16
IC50 [3]: 3.6 ± 0.39 µM
IC50 [4]: 6.16 ± 0.98 µM
MI50 IN multimerization (HIV-1 IN multimerization): none succeeded in inducing multimerization
IC50 [5]: 2.05 ± 0.35 µM
IC50 (HIV-1 IN K173A mutant): 3.3 ± 0.86 µM
Fold of increase of potency, K173A mutant (HIV-1 IN K173A mutant): 13.2
IC50 (HIV-1 IN H185A mutant; [8]): 2.27 ± 0.43 µM
IC50 (HIV-1 IN H185A mutant; [9]): 0.61 ± 0.022 µM
Fold of increase of potency, H185A mutant (HIV-1 IN H185A mutant): 3.7
effect on viral replication [6]: not able to inhibit viral replication
cytotoxicity (human T-cell line CEM-SS): devoid of cytotoxicity

O=c1[nH]c(-c2cc(O)c(O)c(O)c2)nc2sc3c(c12)CCC3 [Compound 13, 2-(3,4,5-Trihydroxyphenyl)-3,5,6,7-tetrahydro-4H-cyclopenta[4,5]thieno[2,3-d]pyrimidin-4-one]
IC50 [3]: 1.12 ± 0.22 µM

O=c1[nH]c(-c2cc(O)c(O)c(O)c2)nc2sc3c(c12)CCCCC3 [C00006]
IC50 [2, 10]: 0.31 ± 0.035 µM

O=c1[nH]c(-c2cc(O)c(O)cc2O)nc2sc3c(c12)CCCCC3 [Compound 9, 2-(2,4,5-Trihydroxyphenyl)-3,5,6,7,8,9-hexahydro-4H-cyclohepta[4,5]thieno[2,3-d]pyrimidin-4-one]
IC50 [2, 10]: 0.965 ± 0.035 µM
IC50 [3]: 0.99 ± 0.09 µM
IC50 [4]: > 100 µM
IC50 IN/LEDGF/p75 binding [4]: inactive
MI50 IN multimerization (HIV-1 IN multimerization): none succeeded in inducing multimerization
IC50 [5]: 6.35 ± 1.35 µM

Cc1sc2nc(-c3cc(O)c(O)cc3O)[nH]c(=O)c2c1C [C00002]
IC50 [2, 10]: 0.45 ± 0.09 µM

O=c1[nH]c(-c2cc(O)c(O)cc2O)nc2sc3c(c12)CCC3 [C00008]
IC50 [2, 10]: 1.96 ± 0.125 µM

Cc1sc2nc(-c3cc(O)ccc3O)[nH]c(=O)c2c1C [Compound 4]
IC50 [1]: 85 ± 6 µM

Cc1sc2nc(-c3cc(O)c(O)c(O)c3)[nH]c(=O)c2c1C [Compound 5, 5,6-Dimethyl-2-(3,4,5-trihydroxyphenyl)thieno[2,3-d]pyrimidin-4(3H)-one]
IC50 [2, 10]: 8 ± 2 µM
IC50 [3]: 5.35 ± 0.55 µM

Cc1sc2nc(-c3ccc(O)c(O)c3O)[nH]c(=O)c2c1C [Compound 8, 5,6-Dimethyl-2-(2,3,4-trihydroxyphenyl)thieno[2,3-d]pyrimidin-4(3H)-one]
IC50 [2, 10]: 11.8 ± 1.85 µM

Cc1sc2nc(-c3cc(O)cc(O)c3)[nH]c(=O)c2c1C [Compound 2]
IC50 [1]: 3.7 ± 0.73 µM
